Test results from patent US6423334B1, “Composition and method for enhancing transport across gastrointestinal tract cell layers” (priority 1997, dated 2002).

Experiments:
Caco-2 monolayers [1] = test: TEER of Caco-2 monolayers during flux experiments; format: cell-based, human; conditions: for decrease in TEER / overall decrease in resistance (TEER) of control cells: 2 hour flux; for overall decrease in resistance (TEER) of control cells: labelled drug alone, no enhancer
Method: Part a: Caco-2 monolayers (passage 20-40; 20-30 days post seeding on filters) were treated apically for 20-30 min with the 8mM and 40 mM Babassu oil in Hanks+25 mM Hepes. The oil was removed and replaced with Hanks containing 100 IU/ml Kraeber low molecular weight heparin. […] Transepithelial electrical resistance (TEER) measurements were taken at regular intervals for 20 min and subsequently every 30 min after the oil was removed with the Evohmeter (WPI) and chopsticks as shown in Table 4. The results are expressed as mean±S.E. (statistical differences examined using the two sided independent t-test).
(§1) A further 2 hour transepithelial transport study was carried out as above for [^3H]-TRH (0.12 nM) except that excess TRH (cold, 4.4 mM; Bachem, UK) was also administered apically. […] No significant difference between TRH Papp values at low concentrations (0.05-0.1 nM) and high TRH concentrations (4.4 mM) was observed providing evidence of passive TRH absorption across the monolayer.
(§2) Statistically significant differences existed between Babassu TEER results and those of the other oils (2 mM) at each 30 minute interval except between Babassu oil and Almond oil at the T=30 sampling. No significant differences in TEER was observed between Almond oil, Palm Kernel oil and Maize oil. The average 30% reduction in TEER observed for Almond, Palm Kernel and Maize oils at 2 mM during the 2 hour flux was not evident in the presence of Babassu oil (2 mM).

Caco-2 monolayers [2] = test: Flux of [3H]-TRH across Caco-2 monolayers; format: in vitro ADME, human
Method: (§3) The cell monolayers were incubated as given in Example 4 above.
as §1, §2

[3] = Flux of [3H]-TRH across Caco-2 monolayers; format: in vitro ADME, human; conditions: human, Caco-2
Method: as §3, §1, §2

Caco-2 monolayers [4] = conditions: human, Caco-2, 2 h, 0.04 nM, pH 7.4
Method: (§4) The cell monolayers were incubated with prewarmed Hanks balanced salt solution (HBSS modified by adding 1 g glucose/I—final concentration 11 mM glucose and 24 mM Hepes, pH 7.4) at 37° C. for 30 minutes, adding 1 ml to apical and 2 ml to the basolateral side. At T=0, apical HBSS was replaced with 1 ml HBSS containing the mannitol transport solution and the plates were placed in a 37° C. incubator on an orbital shaker. Samples were taken from the apical side at T=0 and T=120 min and from the basolateral side every 30 min. The resulting samples were measured by liquid scintillation spectrophotometry using a Wallac 1409.
(§5) An experiment similar to the above transepithelial transport of mannitol experiment was conducted except that cytochalasin D (1 μg/ml), a potent tight junction opener, was added apically and basolaterally at time zero instead of the Babassu oil.
(§6) Following the procedures of the 2 hour flux experiments of Example 4 above, [^3H]-mannitol (0.04 nM) was added apically to Caco-2 monolayers in the presence of 0.1 mM, 5.0 mM, and 10 mM Almond Oil, 0.1 mM, 2.0 mM, 2.5 mM, 5.0 mM and 10 mM Palm Kernel oil as well as 0.1 mM, 1 mM and 2 mM Maize oil.

in vitro = conditions: human
Method: as §4, §5, §6

SMILES | decrease in TEER (Caco-2 monolayers [1]; Cytochalasin D with [3H]-TRH) [%] | decrease in TEER (Caco-2 monolayers [1]; Cytochalasin D with [3H]-mannitol) [%] | reduction in TEER (Caco-2 monolayers [1]; cytochalasin D 1 μg/ml apically and basolaterally, mannitol flux) [%] | initial reduction in TEER (Caco-2 monolayers [1]; cytochalasin D 1 μg/ml, TRH flux, first hour) [%] | additional reduction in TEER (Caco-2 monolayers [1]; cytochalasin D 1 μg/ml, TRH flux, remaining hour) [%] | apparent permeability coefficient (Papp) of TRH (Caco-2 monolayers [2]; in the presence of cytochalasin D 1 μg/ml) [×10⁻⁶ cm/s] | overall decrease in resistance (TEER) of control cells (Caco-2 monolayers [1]) [%] | reduction in TEER (Caco-2 monolayers [1]; [3H]-TRH 0.12 nM in the presence and absence of excess cold TRH (4.4 mM), 2 hours) | TRH transported across the Caco-2 monolayer (Caco-2 monolayers [2]; Caco-2) [%] | Papp A→B at 2 h, 0.12 nM [3] [×10⁻⁶ cm/s] | Papp A→B at 2 h, 0.2 nM [3] [×10⁻⁶ cm/s] | % Transport per hour (Caco-2 monolayers [4]) [%] | Papp A→B at 2 h, 0.04 nM (in vitro; Caco-2, pH 7.4, Papp) [×10⁻⁶ cm/s] | Papp A→B at 2 h, 0.04 nM (in vitro; Caco-2, pH 7.4, apparent permeability coefficient (Papp) of mannitol) [×10⁻⁶ cm/s]
C=C1[C@@H](C)[C@H]2[C@H](Cc3ccccc3)NC(=O)[C@]23[C@H](OC(C)=O)/C=C/[C@@](C)(O)C(=O)[C@@H](C)C/C=C/[C@H]3[C@@H]1O [cytochalasin D] | 50 | 59 | 60 | 40 | 22 | 5.7 | – | – | – | – | – | – | – | –
NC(=O)[C@@H]1CCCN1C(=O)[C@H](Cc1cnc[nH]1)NC(=O)[C@@H]1CCC(=O)N1 [TRH, Thyrotropin releasing hormone] | – | – | – | – | – | – | 29.2 | approximately 20% | 0.2 | 0.53 | 0.72 ± 0.025 | – | – | –
OC[C@@H](O)[C@@H](O)[C@H](O)[C@H](O)CO [mannitol, mannitol, D -[1-^3H (n)]] | – | – | – | – | – | – | 12.8 | – | – | – | – | 0.28 | 0.79 ± 0.03 | 0.79
